Results taken from PMC6437697 (Journal of Medicinal Chemistry, 2019).

Assays:
Experiment in all cases: KINOMEscan
Assay type in all cases: binding
Conditions in all cases: read-out: % control activity remaining
[1] = biological target: T1, ABL1(H396P)-phosphorylated (Homo sapiens, UniProt P00519, H396P)
T1 construct: purchased Eurofins DiscoverX KINOMEscan

[2] = biological target: T2, ABL1(T315I)-phosphorylated (Homo sapiens, UniProt P00519, T315I)
T2 construct: purchased Eurofins DiscoverX KINOMEscan

[3] = biological target: T3, ACVR2A (Homo sapiens, UniProt P27037)
T3 construct: purchased Eurofins DiscoverX KINOMEscan

[4] = biological target: T4, BMPR2 (Homo sapiens, UniProt Q13873)
T4 construct: purchased Eurofins DiscoverX KINOMEscan
T4 sequence (Q13873 27-1038): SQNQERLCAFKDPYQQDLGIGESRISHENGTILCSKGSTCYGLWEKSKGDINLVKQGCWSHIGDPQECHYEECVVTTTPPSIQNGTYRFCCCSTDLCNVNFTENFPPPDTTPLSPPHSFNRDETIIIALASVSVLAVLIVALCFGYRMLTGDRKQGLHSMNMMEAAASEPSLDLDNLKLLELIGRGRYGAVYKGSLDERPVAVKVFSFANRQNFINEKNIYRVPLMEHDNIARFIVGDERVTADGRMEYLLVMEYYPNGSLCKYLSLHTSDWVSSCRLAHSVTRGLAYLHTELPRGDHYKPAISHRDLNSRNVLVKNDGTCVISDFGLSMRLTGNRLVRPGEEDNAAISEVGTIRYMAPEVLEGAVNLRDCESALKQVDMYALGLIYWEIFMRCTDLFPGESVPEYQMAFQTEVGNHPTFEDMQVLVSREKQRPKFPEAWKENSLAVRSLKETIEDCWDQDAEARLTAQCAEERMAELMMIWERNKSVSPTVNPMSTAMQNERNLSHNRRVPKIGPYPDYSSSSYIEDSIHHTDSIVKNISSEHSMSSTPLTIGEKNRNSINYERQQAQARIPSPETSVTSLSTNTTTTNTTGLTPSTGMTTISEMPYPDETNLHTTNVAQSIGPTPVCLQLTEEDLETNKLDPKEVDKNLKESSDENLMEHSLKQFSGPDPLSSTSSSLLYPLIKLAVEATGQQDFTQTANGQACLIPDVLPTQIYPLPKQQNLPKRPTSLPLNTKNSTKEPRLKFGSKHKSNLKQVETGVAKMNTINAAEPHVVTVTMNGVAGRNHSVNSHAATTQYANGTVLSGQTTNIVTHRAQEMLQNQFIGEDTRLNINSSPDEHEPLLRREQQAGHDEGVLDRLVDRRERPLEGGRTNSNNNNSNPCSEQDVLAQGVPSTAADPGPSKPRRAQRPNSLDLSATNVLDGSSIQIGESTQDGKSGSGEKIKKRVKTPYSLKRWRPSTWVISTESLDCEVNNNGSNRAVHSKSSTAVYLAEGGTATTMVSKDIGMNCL

[5] = biological target: T5, CDKL1 (Homo sapiens, UniProt Q00532)
T5 construct: purchased Eurofins DiscoverX KINOMEscan
T5 sequence (Q00532 whole entry): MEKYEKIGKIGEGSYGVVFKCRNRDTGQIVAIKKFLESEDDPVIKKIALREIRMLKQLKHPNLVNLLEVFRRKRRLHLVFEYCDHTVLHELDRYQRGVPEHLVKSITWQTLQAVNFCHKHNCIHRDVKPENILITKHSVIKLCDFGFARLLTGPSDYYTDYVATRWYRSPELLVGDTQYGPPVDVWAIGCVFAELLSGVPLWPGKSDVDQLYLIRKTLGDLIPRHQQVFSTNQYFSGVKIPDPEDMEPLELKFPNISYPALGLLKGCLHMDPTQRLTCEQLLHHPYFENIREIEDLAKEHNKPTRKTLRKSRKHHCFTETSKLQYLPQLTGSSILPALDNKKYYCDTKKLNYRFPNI

[6] = biological target: T6, EGFR (Homo sapiens, UniProt P00533)
T6 construct: purchased Eurofins DiscoverX KINOMEscan

[7] = biological target: T7, FAK (Homo sapiens, UniProt Q05397)
T7 construct: purchased Eurofins DiscoverX KINOMEscan
T7 sequence (Q05397 whole entry): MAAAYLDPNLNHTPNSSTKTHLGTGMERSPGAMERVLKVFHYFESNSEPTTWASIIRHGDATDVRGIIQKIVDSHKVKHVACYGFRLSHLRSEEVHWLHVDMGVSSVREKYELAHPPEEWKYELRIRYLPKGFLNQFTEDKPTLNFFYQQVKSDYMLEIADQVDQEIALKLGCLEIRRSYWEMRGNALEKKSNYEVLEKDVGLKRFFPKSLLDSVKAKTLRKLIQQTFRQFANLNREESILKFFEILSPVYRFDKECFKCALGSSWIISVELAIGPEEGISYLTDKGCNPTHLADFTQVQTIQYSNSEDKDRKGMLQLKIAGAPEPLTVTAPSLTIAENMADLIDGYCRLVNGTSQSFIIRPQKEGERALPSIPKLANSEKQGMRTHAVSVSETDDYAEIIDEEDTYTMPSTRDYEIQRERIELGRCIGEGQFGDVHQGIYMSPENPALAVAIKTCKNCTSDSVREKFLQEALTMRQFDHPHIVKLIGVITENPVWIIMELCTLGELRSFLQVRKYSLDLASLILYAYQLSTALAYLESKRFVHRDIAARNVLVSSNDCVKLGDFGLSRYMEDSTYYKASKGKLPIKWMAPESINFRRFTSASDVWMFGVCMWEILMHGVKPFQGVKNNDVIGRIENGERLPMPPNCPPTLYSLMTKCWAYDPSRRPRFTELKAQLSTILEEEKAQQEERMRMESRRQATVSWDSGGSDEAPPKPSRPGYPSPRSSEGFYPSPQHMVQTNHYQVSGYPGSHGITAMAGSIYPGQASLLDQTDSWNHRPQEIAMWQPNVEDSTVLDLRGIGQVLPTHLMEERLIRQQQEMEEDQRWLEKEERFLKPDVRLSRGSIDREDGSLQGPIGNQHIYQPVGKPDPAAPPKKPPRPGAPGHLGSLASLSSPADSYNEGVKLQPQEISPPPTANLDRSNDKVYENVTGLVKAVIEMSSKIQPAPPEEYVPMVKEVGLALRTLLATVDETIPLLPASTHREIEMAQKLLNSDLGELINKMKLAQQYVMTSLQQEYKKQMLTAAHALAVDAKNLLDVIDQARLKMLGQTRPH

[8] = biological target: T8, FLT1 (Homo sapiens, UniProt P17948)
T8 construct: purchased Eurofins DiscoverX KINOMEscan
T8 sequence (P17948 27-1338): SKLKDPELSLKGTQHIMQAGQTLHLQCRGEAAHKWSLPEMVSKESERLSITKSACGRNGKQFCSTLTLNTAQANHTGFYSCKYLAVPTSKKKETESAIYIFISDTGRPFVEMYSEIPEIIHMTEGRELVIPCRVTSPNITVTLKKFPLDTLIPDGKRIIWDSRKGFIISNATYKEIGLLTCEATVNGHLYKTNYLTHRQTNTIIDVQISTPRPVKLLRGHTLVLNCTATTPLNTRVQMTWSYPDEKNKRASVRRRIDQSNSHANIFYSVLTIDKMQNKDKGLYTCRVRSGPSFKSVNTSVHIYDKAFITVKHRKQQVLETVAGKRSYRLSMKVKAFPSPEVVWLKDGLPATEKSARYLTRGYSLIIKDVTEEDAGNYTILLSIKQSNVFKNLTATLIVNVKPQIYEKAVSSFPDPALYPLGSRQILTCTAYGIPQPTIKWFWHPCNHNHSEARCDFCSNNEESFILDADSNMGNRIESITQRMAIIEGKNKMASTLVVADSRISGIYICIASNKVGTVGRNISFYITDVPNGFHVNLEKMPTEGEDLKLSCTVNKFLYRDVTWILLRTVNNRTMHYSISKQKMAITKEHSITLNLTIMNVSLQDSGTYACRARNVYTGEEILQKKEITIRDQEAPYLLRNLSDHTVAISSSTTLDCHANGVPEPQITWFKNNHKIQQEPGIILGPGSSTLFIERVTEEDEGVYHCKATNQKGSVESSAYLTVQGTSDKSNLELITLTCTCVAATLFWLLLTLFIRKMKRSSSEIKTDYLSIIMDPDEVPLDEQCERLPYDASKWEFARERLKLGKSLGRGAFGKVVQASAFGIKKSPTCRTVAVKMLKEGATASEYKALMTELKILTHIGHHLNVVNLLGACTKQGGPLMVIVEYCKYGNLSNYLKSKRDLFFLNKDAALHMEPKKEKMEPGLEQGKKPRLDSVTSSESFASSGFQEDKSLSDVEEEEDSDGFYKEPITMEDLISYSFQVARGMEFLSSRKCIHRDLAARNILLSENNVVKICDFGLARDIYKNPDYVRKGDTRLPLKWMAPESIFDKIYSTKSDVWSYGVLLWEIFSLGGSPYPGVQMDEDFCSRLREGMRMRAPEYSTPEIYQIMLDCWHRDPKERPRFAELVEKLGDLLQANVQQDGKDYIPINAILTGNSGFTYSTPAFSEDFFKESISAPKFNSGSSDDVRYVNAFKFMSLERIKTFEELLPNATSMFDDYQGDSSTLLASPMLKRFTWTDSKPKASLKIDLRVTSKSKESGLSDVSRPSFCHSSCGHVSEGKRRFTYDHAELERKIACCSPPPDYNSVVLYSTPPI

[9] = biological target: T9, HIPK1 (Homo sapiens, UniProt Q86Z02)
T9 construct: purchased Eurofins DiscoverX KINOMEscan

[10] = biological target: T10, HPK1 (Homo sapiens, UniProt Q92918)
T10 construct: purchased Eurofins DiscoverX KINOMEscan

[11] = biological target: T11, KIT(D816H) (Homo sapiens, UniProt P10721, D816H)
T11 construct: purchased Eurofins DiscoverX KINOMEscan
T11 sequence (P10721 26-976 D816H): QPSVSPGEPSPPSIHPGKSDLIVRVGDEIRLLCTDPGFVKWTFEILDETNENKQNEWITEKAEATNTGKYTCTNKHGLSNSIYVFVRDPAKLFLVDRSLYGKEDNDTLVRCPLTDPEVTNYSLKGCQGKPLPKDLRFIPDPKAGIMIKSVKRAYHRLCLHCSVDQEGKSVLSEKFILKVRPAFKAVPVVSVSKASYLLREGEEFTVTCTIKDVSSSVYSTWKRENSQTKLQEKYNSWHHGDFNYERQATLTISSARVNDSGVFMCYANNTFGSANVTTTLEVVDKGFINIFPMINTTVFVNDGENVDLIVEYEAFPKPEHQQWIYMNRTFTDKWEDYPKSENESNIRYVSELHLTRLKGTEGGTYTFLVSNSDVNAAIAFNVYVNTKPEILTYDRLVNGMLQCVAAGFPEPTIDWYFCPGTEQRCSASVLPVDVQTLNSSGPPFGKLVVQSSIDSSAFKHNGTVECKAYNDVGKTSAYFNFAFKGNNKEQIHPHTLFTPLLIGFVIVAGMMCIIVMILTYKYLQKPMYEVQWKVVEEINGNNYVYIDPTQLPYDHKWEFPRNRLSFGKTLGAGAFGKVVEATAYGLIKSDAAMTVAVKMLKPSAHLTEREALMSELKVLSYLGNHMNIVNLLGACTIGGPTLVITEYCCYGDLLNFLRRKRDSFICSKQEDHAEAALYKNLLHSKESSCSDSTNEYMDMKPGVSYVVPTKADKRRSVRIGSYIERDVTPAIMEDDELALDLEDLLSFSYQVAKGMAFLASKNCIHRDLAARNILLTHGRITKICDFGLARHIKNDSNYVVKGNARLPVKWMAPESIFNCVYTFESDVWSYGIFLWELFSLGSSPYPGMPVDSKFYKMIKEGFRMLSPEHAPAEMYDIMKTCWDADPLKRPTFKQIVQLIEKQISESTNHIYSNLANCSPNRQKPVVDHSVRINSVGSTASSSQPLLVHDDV

[12] = biological target: T12, LCK (Homo sapiens, UniProt P06239)
T12 construct: purchased Eurofins DiscoverX KINOMEscan
T12 sequence (P06239 whole entry): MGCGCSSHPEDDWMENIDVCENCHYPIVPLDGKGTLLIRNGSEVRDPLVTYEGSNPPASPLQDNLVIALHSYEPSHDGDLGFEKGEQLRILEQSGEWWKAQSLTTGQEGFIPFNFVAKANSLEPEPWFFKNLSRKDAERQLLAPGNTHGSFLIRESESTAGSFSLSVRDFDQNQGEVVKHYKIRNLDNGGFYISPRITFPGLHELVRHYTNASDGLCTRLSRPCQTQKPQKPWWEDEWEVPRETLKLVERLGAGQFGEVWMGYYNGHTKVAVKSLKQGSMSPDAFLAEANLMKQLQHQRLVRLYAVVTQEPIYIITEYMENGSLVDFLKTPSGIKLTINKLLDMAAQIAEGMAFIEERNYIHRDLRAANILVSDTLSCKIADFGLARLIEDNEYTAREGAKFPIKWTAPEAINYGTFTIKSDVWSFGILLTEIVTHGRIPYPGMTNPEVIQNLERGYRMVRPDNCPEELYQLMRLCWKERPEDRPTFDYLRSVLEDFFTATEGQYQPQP

[13] = biological target: T13, MAPKAPK5 (Homo sapiens, UniProt Q8IW41)
T13 construct: purchased Eurofins DiscoverX KINOMEscan
T13 sequence (Q8IW41 1-473): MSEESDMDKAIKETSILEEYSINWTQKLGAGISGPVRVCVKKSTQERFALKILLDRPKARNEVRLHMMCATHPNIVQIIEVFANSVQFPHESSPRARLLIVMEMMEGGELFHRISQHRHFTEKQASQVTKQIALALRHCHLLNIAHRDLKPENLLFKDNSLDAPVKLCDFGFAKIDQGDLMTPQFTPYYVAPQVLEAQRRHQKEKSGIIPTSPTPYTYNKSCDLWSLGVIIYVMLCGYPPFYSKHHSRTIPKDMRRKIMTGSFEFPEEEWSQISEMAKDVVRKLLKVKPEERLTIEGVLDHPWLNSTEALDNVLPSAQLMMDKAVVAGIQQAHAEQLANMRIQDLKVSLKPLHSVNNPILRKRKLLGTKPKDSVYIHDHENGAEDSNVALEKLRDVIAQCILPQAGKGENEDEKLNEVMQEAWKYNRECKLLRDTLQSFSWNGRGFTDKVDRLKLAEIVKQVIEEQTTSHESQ

[14] = biological target: T14, MEK5 (Homo sapiens, UniProt Q13163)
T14 construct: purchased Eurofins DiscoverX KINOMEscan
T14 sequence (Q13163 1-448): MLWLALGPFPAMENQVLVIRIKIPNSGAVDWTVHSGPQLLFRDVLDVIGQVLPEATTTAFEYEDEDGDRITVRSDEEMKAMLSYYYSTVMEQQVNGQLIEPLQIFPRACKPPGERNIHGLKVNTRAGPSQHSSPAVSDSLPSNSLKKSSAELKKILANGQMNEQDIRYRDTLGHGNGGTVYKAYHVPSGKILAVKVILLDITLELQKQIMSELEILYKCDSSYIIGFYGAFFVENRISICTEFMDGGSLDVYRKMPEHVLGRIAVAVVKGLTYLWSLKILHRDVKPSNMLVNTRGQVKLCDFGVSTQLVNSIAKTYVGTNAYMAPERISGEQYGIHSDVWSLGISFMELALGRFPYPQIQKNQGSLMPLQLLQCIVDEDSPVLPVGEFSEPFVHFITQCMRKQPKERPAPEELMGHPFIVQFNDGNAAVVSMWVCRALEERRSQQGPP

[15] = biological target: T15, PCTK1 (Homo sapiens, UniProt Q00536)
T15 construct: purchased Eurofins DiscoverX KINOMEscan

[16] = biological target: T16, PDGFRA (Homo sapiens, UniProt P16234)
T16 construct: purchased Eurofins DiscoverX KINOMEscan

[17] = biological target: T17, TRKB (Homo sapiens, UniProt Q16620)
T17 construct: purchased Eurofins DiscoverX KINOMEscan

[18] = biological target: T18, YSK1 (Homo sapiens, UniProt O00506)
T18 construct: purchased Eurofins DiscoverX KINOMEscan
T18 sequence (O00506 whole entry): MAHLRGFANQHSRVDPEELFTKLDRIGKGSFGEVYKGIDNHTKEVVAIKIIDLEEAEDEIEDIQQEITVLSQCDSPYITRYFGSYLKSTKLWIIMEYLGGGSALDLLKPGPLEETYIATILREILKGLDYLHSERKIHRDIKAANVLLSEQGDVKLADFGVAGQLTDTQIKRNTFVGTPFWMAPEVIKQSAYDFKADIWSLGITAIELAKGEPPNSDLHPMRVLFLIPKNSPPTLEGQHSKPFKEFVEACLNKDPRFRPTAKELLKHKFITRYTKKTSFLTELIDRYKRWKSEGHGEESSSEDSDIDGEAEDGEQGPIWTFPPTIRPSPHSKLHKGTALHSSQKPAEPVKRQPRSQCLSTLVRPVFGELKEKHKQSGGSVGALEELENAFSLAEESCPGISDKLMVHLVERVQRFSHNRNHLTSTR

SMILES | remaining binding at 1 µM [1] [%] | remaining binding at 1 µM [2] [%] | remaining binding at 1 µM [3] [%] | remaining binding at 1 µM [4] [%] | remaining binding at 1 µM [5] [%] | remaining binding at 1 µM [6] [%] | remaining binding at 1 µM [7] [%] | remaining binding at 1 µM [8] [%] | remaining binding at 1 µM [9] [%] | remaining binding at 1 µM [10] [%] | remaining binding at 1 µM [11] [%] | remaining binding at 1 µM [12] [%] | remaining binding at 1 µM [13] [%] | remaining binding at 1 µM [14] [%] | remaining binding at 1 µM [15] [%] | remaining binding at 1 µM [16] [%] | remaining binding at 1 µM [17] [%] | remaining binding at 1 µM [18] [%]
CN1CCC(CNc2cc(Cl)nn3c(-c4cc5nc(Nc6ccccc6)[nH]c5cc4F)cnc23)CC1 [compound 31, 6-Chloro-3-(6-fluoro-2-(phenylamino)-1H-benzo[d]imidazol-5-yl)-N-((1-methylpiperidin-4-yl)methyl)imidazo[1,2-b]pyridazin-8-amine] | 67 | 87 | 97 | 91 | 67 | 100 | 97 | 45 | 74 | 97 | 96 | 82 | 82 | 71 | 37 | 94 | 91 | 99
O=C(CN1CCOCC1)N[C@H]1CC[C@H](Nc2cc(Cl)nn3c(-c4ccc5[nH]ncc5c4)cnc23)CC1 [compound 26] | 46 | 50 | 100 | 100 | 90 | 80 | 100 | 11 | 0.45 | 88 | 63 | 87 | 98 | 95 | 87 | 0.3 | 69 | 100
Clc1cc(NCC2CC2)c2ncc(-c3ccc4[nH]ncc4c3)n2n1 [compound 2, 6-Chloro-N-(cyclopropylmethyl)-3-(1H-indazol-5-yl)imidazo[1,2-b]pyridazin-8-amine] | 73 | 94 | 100 | 96 | 74 | 71 | 91 | 90 | 42 | 75 | 100 | 100 | 91 | 85 | 97 | 12 | 89 | 92
